Measured values from PubChem BioAssay AID248 (DTP/NCI, 2004).
Values joined by “and” are separate entries in the source; they are usually repeats but may differ in a detail not shown here. Identical values can stand only once. Inconclusive results and toxic doses are left out. Cut-off read from the data, not from the text of the source: active = T/C of 150% or more; inactive = T/C below 125%.

Test system: L1210 leukemia ip in BDF1 mice, survival T/C
Assay: NCI In Vivo Anticancer Drug Screen. Data for tumor model L1210 Leukemia (intraperitoneal) in B6D2F1 (BDF1) mice
Conditions: endpoint: mean survival time, higher = longer survival
Procedure, shortened: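 Tumor was transplanted into mice, which were then dosed with test compound or vehicle alone. Survival was recorded for each group, and the treated figure was expressed relative to the control figure.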

[1] = dose: 100.0 mg/kg/injection, schedule: Q04DX003 (ip), vehicle: Klucel (hydroxypropylcellulose) (HPC)
[2] = dose: 200.0 mg/kg/injection, schedule: Q04DX003 (ip), vehicle: Klucel (hydroxypropylcellulose) (HPC)
[3] = dose: 400.0 mg/kg/injection, schedule: Q04DX003 (ip), vehicle: Klucel (hydroxypropylcellulose) (HPC)
[4] = dose: 100.0 mg/kg/injection, schedule: Q01DX009 (ip), vehicle: Klucel (hydroxypropylcellulose) (HPC)
[5] = dose: 200.0 mg/kg/injection, schedule: Q01DX009 (ip), vehicle: Klucel (hydroxypropylcellulose) (HPC)
[6] = dose: 400.0 mg/kg/injection, schedule: Q01DX009 (ip), vehicle: Klucel (hydroxypropylcellulose) (HPC)
[7] = dose: 12.5 mg/kg/injection, schedule: Q01DX009 (ip), vehicle: saline with Tween-80
[8] = dose: 25.0 mg/kg/injection, schedule: Q01DX009 (ip), vehicle: saline with Tween-80
[9] = dose: 25.0 mg/kg/injection, schedule: Q04DX003 (ip), vehicle: saline with Tween-80
[10] = dose: 100.0 mg/kg/injection, schedule: Q04DX003 (ip), vehicle: saline with Tween-80
[11] = dose: 200.0 mg/kg/injection, schedule: Q04DX003 (ip), vehicle: saline with Tween-80
[12] = dose: 400.0 mg/kg/injection, schedule: Q04DX003 (ip), vehicle: saline with Tween-80
[13] = dose: 100.0 mg/kg/injection, schedule: Q01DX001 (ip), vehicle: saline
[14] = dose: 200.0 mg/kg/injection, schedule: Q01DX001 (ip), vehicle: saline
[15] = dose: 400.0 mg/kg/injection, schedule: Q01DX001 (ip), vehicle: saline
[16] = dose: 100.0 mg/kg/injection, schedule: Q04DX002 (ip), vehicle: Klucel (hydroxypropylcellulose) (HPC)
[17] = dose: 200.0 mg/kg/injection, schedule: Q04DX002 (ip), vehicle: Klucel (hydroxypropylcellulose) (HPC)
[18] = dose: 400.0 mg/kg/injection, schedule: Q04DX002 (ip), vehicle: Klucel (hydroxypropylcellulose) (HPC)

Measured: T/C

CSc1cccc(Cl)c1
inactive: dose: 75.0 mg/kg/injection, schedule: Q01DX001 (ip), vehicle: saline 100 % of control | dose: 150.0 mg/kg/injection, schedule: Q01DX001 (ip), vehicle: saline 101 % of control

N#C/C(=C/c1ccccc1B(O)O)C(=O)O
inactive: [1] 89 % of control | [2] 93 % of control | [3] 95 % of control

O=Nc1ccc2cc(O)ccc2c1O
inactive: dose: 1.56 mg/kg/injection, schedule: Q01DX009 (ip), vehicle: Klucel (hydroxypropylcellulose) (HPC) 96 % of control | dose: 3.12 mg/kg/injection, schedule: Q01DX009 (ip), vehicle: Klucel (hydroxypropylcellulose) (HPC) 96 % of control | dose: 6.25 mg/kg/injection, schedule: Q01DX009 (ip), vehicle: Klucel (hydroxypropylcellulose) (HPC) 104 % of control | dose: 12.5 mg/kg/injection, schedule: Q01DX009 (ip), vehicle: Klucel (hydroxypropylcellulose) (HPC) 101 % of control | dose: 12.5 mg/kg/injection, schedule: Q04DX003 (ip), vehicle: Klucel (hydroxypropylcellulose) (HPC) 103 % of control | dose: 25.0 mg/kg/injection, schedule: Q04DX003 (ip), vehicle: Klucel (hydroxypropylcellulose) (HPC) 97 % of control | dose: 50.0 mg/kg/injection, schedule: Q04DX003 (ip), vehicle: Klucel (hydroxypropylcellulose) (HPC) 100 % of control

CC(=O)OC(C)c1ccc(Cl)cc1 (centres undefined)
inactive: dose: 100.0 mg/kg/injection, schedule: Q04DX002 (ip), vehicle: saline with Tween-80 101 % of control | dose: 200.0 mg/kg/injection, schedule: Q04DX002 (ip), vehicle: saline with Tween-80 97 % of control | dose: 400.0 mg/kg/injection, schedule: Q04DX002 (ip), vehicle: saline with Tween-80 93 % of control

N#Cc1ccc(-c2ccc(C#N)cc2Br)c(Br)c1
inactive: [4] 93 % of control | [1] 94 % of control | [5] 93 % of control | [2] 95 % of control | [6] 88 % of control | [3] 96 % of control

O=C(c1ccc(OC(F)F)cc1)N1CCCCC1
inactive: [1] 94 % of control | [2] 93 % of control | [3] 96 % of control

Cc1ccc(OC/C=C/CS(=O)(=O)c2ccc(Cl)cc2)cc1
inactive: dose: 50.0 mg/kg/injection, schedule: Q01DX009 (ip), vehicle: Klucel (hydroxypropylcellulose) (HPC) 98 % of control | dose: 75.0 mg/kg/injection, schedule: Q01DX001 (ip), vehicle: Klucel (hydroxypropylcellulose) (HPC) 96 % of control | [4] 95 % of control | dose: 150.0 mg/kg/injection, schedule: Q01DX001 (ip), vehicle: Klucel (hydroxypropylcellulose) (HPC) 96 % of control | [5] 98 % of control | dose: 300.0 mg/kg/injection, schedule: Q01DX001 (ip), vehicle: Klucel (hydroxypropylcellulose) (HPC) 94 % of control

c1cc(Nc2ccncc2)ccn1
inactive: dose: 6.25 mg/kg/injection, schedule: Q01DX009 (ip), vehicle: saline with Tween-80 97 % of control | [7] 95 % of control | [8] 99 % of control | [9] 97 % of control

Nc1ccn(CCCCc2ccccc2)c(=O)n1
inactive: dose: 100.0 mg/kg/injection, schedule: Q01DX001 (ip), vehicle: gum acacia 93 % of control | dose: 200.0 mg/kg/injection, schedule: Q01DX001 (ip), vehicle: gum acacia 95 % of control | dose: 400.0 mg/kg/injection, schedule: Q01DX001 (ip), vehicle: gum acacia 91 % of control

C/C(=N\O)C1(C)CC=CCC1CO (centres undefined)
inactive: [10] 101 % of control | [11] 101 % of control | [12] 96 % of control

CCCC1(CN2c3ccccc3Sc3ccccc32)CCN(CC)C1 (centres undefined)
inactive: dose: 9.37 mg/kg/injection, schedule: Q01DX009 (ip), vehicle: saline 101 % of control | dose: 12.5 mg/kg/injection, schedule: Q01DX001 (ip), vehicle: saline 97 % of control and 100 % of control | dose: 12.5 mg/kg/injection, schedule: Q04DX003 (ip), vehicle: saline 103 % of control | dose: 18.75 mg/kg/injection, schedule: Q01DX009 (ip), vehicle: saline 95 % of control | dose: 25.0 mg/kg/injection, schedule: Q01DX001 (ip), vehicle: saline 95 % of control | dose: 25.0 mg/kg/injection, schedule: Q04DX003 (ip), vehicle: saline 103 % of control | dose: 37.5 mg/kg/injection, schedule: Q01DX009 (ip), vehicle: saline 92 % of control | dose: 50.0 mg/kg/injection, schedule: Q01DX001 (ip), vehicle: saline 95 % of control and 87 % of control | dose: 50.0 mg/kg/injection, schedule: Q04DX003 (ip), vehicle: saline 97 % of control | dose: 75.0 mg/kg/injection, schedule: Q04DX003 (ip), vehicle: saline 103 % of control

Brc1ccc(Br)c(-c2nnc(-c3cccc4ccccc34)o2)c1
inactive: [13] 86 % of control

CCOP(=O)(Cc1ccc(Cl)cc1)OCC
inactive: dose: 100.0 mg/kg/injection, schedule: Q01DX009 (ip), vehicle: carboxymethylcellulose (CMC) 102 % of control and 90 % of control | dose: 100.0 mg/kg/injection, schedule: Q04DX002 (ip), vehicle: carboxymethylcellulose (CMC) 98 % of control and 107 % of control | dose: 100.0 mg/kg/injection, schedule: Q04DX003 (ip), vehicle: carboxymethylcellulose (CMC) 96 % of control | dose: 200.0 mg/kg/injection, schedule: Q01DX009 (ip), vehicle: carboxymethylcellulose (CMC) 104 % of control and 107 % of control | dose: 200.0 mg/kg/injection, schedule: Q04DX002 (ip), vehicle: carboxymethylcellulose (CMC) 93 % of control and 101 % of control | dose: 200.0 mg/kg/injection, schedule: Q04DX003 (ip), vehicle: carboxymethylcellulose (CMC) 100 % of control | dose: 400.0 mg/kg/injection, schedule: Q04DX002 (ip), vehicle: carboxymethylcellulose (CMC) 93 % of control and 95 % of control

O=c1[nH]c(=O)c2ccccc2o1
inactive: dose: 2.5 mg/kg/injection, schedule: Q04DX003 (ip), vehicle: saline 100 % of control | dose: 5.0 mg/kg/injection, schedule: Q04DX003 (ip), vehicle: saline 105 % of control | dose: 10.0 mg/kg/injection, schedule: Q04DX003 (ip), vehicle: saline 100 % of control | dose: 100.0 mg/kg/injection, schedule: Q01DX009 (ip), vehicle: saline with Tween-80 105 % of control

NC(N)=NCCN1C(c2ccccc2)C1c1ccccc1 (centres undefined)
inactive: dose: 12.5 mg/kg/injection, schedule: Q04DX002 (ip), vehicle: saline with Tween-80 107 % of control | dose: 25.0 mg/kg/injection, schedule: Q04DX002 (ip), vehicle: saline with Tween-80 103 % of control | dose: 50.0 mg/kg/injection, schedule: Q04DX002 (ip), vehicle: saline with Tween-80 100 % of control

CC(C)=CCC(C)c1ccccn1 (centres undefined)
inactive: [13] 100 % of control | [14] 100 % of control | [15] 97 % of control

CC(C)(C)N1CC(C(=O)c2ccccc2)C1c1ccccc1 (centres undefined)
inactive: [13] 94 % of control | [4] 96 % of control | [10] 96 % of control and 107 % of control | [14] 94 % of control | [5] 101 % of control | [11] 90 % of control and 94 % of control | [15] 92 % of control | [6] 100 % of control | [12] 96 % of control and 98 % of control

CCOC(=O)CCc1nc2ccc3ccccc3c2c(=O)[nH]1
inactive: [16] 88 % of control | [17] 91 % of control | [18] 94 % of control

CNC(=O)N(C)c1cc(N(C)C)nc(OC)n1
inactive: dose: 5.0 mg/kg/injection, schedule: Q01DX009 (ip), vehicle: Klucel (hydroxypropylcellulose) (HPC) 98 % of control | dose: 10.0 mg/kg/injection, schedule: Q01DX009 (ip), vehicle: Klucel (hydroxypropylcellulose) (HPC) 94 % of control | dose: 20.0 mg/kg/injection, schedule: Q01DX009 (ip), vehicle: Klucel (hydroxypropylcellulose) (HPC) 94 % of control

Cc1c(CC(Cl)Cl)cc(-c2ccccc2)c2ccccc12
inactive: [1] 96 % of control | [2] 92 % of control | [3] 100 % of control

CCOC(=O)C(C)(C)C(=O)C(C)C
inactive: [16] 100 % of control | [17] 95 % of control | [18] 103 % of control

N#CC1(C#N)C2C=CC(C3C(Cl)C=CC32)C1(C#N)C#N (centres undefined)
inactive: [7] 87 % of control | dose: 12.5 mg/kg/injection, schedule: Q04DX003 (ip), vehicle: saline with Tween-80 96 % of control | [8] 89 % of control | [9] 94 % of control | dose: 50.0 mg/kg/injection, schedule: Q04DX003 (ip), vehicle: saline with Tween-80 97 % of control
